One assay deals with E. coli ATCC 25922. Description: Broth microdilution MIC / MBC assay, E. coli. The format is cell-based. The note with it: Escherichia coli; for MIC: ATCC25922, 24 h, read-out: Antibacterial activity MIC; for MBC: ATCC25922, read-out: Antibacterial activity MBC.
The subject of another assay is S. aureus ATCC 25923. Nature of the assay: Broth microdilution MIC / MBC assay, S. aureus. The format is cell-based. The note with it: Staphylococcus aureus; for MIC: ATCC25923, 24 h, read-out: Antibacterial activity MIC; for MBC: ATCC25923, read-out: Antibacterial activity MBC. A general note: In broth dilution the organism is exposed to a series of concentrations in liquid medium.

In a further assay the test system is S. aureus. The note with it: cited from earlier work.

In brackets after ≈: the same amount, converted by molar mass.

The MIC is the smallest concentration in the dilution series that meets the test's criterion for growth inhibition. One may read the MBC as the smallest concentration meeting the test's criterion for killing.

On to `CCn1cc(C(=O)O)c(=O)c2cc3c(cc21)OCO3` [OA, oxolinic acid], for which, in the assay on E. coli ATCC 25922, the MIC came out at 3 µM (≈ 0.784 µg/mL) and the MBC stood at 6 µM (≈ 1.57 µg/mL). Moreover, in the assay with S. aureus ATCC 25923, the minimal inhibitory concentration (MIC) amounted to 383 µM (≈ 100 µg/mL) and the MBC was greater than 766 µM.
On to Fc-WRWRW, for which the “minimum inhibitory concentration (MIC)” value with S. aureus was 7 µM.
`O=C(O)/C=C/c1ccc(O)c(O)c1` [CA, caffeic acid]: the minimum inhibitory concentration (MIC) in the assay on E. coli ATCC 25922 and in the assay on S. aureus ATCC 25923 was greater than 1110 µM each time. For the same molecule, the minimal bactericidal concentration (MBC) in the assay on E. coli ATCC 25922 and with S. aureus ATCC 25923 was greater than 1110 µM in each case.
Regarding WRWRWR, the “minimum inhibitory concentration (MIC)” value with S. aureus is 16 µM.

The values are drawn from paper PMC9055962 (RSC Advances, 2020).
